Tested on: 653999-131-R-J2-PDC complex spheroid viability
Assay: Anticancer human tumor 653999-131-R-J2-PDC patient-derived lung adenocarcinoma cell line growth inhibition
Conditions: for IC50: curve of first compound; for viability, T/C: stronger effect = lower value
In short: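 Drug combinations with the LSD1 inhibitor iadademstat tested on tumor cells co-cultured as spheroids with endothelial cells and mesenchymal stem cells. Concentrations descended in half-log increments from clinical Cmax or 10 microM.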

[1] = second compound 0.1 µM, first compound 0.0316 µM
[2] = second compound 0.1 µM, first compound 0.1 µM
[3] = second compound 0.1 µM, first compound 0.316 µM
[4] = second compound 0.1 µM, first compound 1 µM
[5] = second compound 0.1 µM, first compound 3.16 µM
[6] = second compound 0.1 µM, first compound 10 µM
[7] = second compound 0.316 µM, first compound 0.0316 µM
[8] = second compound 0.316 µM, first compound 0.1 µM
[9] = second compound 0.316 µM, first compound 0.316 µM
[10] = second compound 0.316 µM, first compound 1 µM
[11] = second compound 0.316 µM, first compound 3.16 µM
[12] = second compound 0.316 µM, first compound 10 µM
[13] = second compound 1 µM, first compound 0.0316 µM
[14] = second compound 1 µM, first compound 0.1 µM
[15] = second compound 1 µM, first compound 0.316 µM
[16] = second compound 1 µM, first compound 1 µM
[17] = second compound 1 µM, first compound 3.16 µM
[18] = second compound 1 µM, first compound 10 µM
[19] = second compound 3.16 µM, first compound 0.0316 µM
[20] = second compound 3.16 µM, first compound 0.1 µM
[21] = second compound 3.16 µM, first compound 0.316 µM
[22] = second compound 3.16 µM, first compound 1 µM
[23] = second compound 3.16 µM, first compound 3.16 µM
[24] = second compound 3.16 µM, first compound 10 µM
[25] = second compound 10 µM, first compound 0.0316 µM
[26] = second compound 10 µM, first compound 0.1 µM
[27] = second compound 10 µM, first compound 0.316 µM
[28] = second compound 10 µM, first compound 1 µM
[29] = second compound 10 µM, first compound 3.16 µM
[30] = second compound 10 µM, first compound 10 µM
[31] = second compound 0.1 µM, first compound 0.00949 µM
[32] = second compound 0.1 µM, first compound 0.03 µM
[33] = second compound 0.1 µM, first compound 0.0949 µM
[34] = second compound 0.1 µM, first compound 0.3 µM
[35] = second compound 0.316 µM, first compound 0.00949 µM
[36] = second compound 0.316 µM, first compound 0.03 µM
[37] = second compound 0.316 µM, first compound 0.0949 µM
[38] = second compound 0.316 µM, first compound 0.3 µM
[39] = second compound 1 µM, first compound 0.00949 µM
[40] = second compound 1 µM, first compound 0.03 µM
[41] = second compound 1 µM, first compound 0.0949 µM
[42] = second compound 1 µM, first compound 0.3 µM
[43] = second compound 3.16 µM, first compound 0.00949 µM
[44] = second compound 3.16 µM, first compound 0.03 µM
[45] = second compound 3.16 µM, first compound 0.0949 µM
[46] = second compound 3.16 µM, first compound 0.3 µM
[47] = second compound 10 µM, first compound 0.00949 µM
[48] = second compound 10 µM, first compound 0.03 µM
[49] = second compound 10 µM, first compound 0.0949 µM
[50] = second compound 10 µM, first compound 0.3 µM
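Further: spheroids exposed to agents for seven days before readout.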

Structure (SMILES): CC1(C)CCC(CN2CCN(c3ccc(C(=O)NS(=O)(=O)c4ccc(NCC5CCOCC5)c([N+](=O)[O-])c4)c(Oc4cnc5[nH]ccc5c4)c3)CC2)=C(c2ccc(Cl)cc2)C1 + NC1CC1c1ccc(-c2cccc(O)c2)cc1
- IC50 (second compound 0.1 µM): 5740 nM
- IC50 (second compound 0.316 µM): 4870 nM
- IC50 (second compound 1 µM): 5190 nM
- IC50 (second compound 3.16 µM): 5260 nM
- IC50 (second compound 10 µM): 4530 nM
- viability, T/C [1]: 117%
- viability, T/C [2]: 118%
- viability, T/C [3]: 107%
- viability, T/C [4]: 102%
- viability, T/C [5]: 81.5%
- viability, T/C [6]: 21.6%
- viability, T/C [7]: 103%
- viability, T/C [8]: 112%
- viability, T/C [9]: 101%
- viability, T/C [10]: 99.3%
- viability, T/C [11]: 65.7%
- viability, T/C [12]: 23.6%
- viability, T/C [13]: 103%
- viability, T/C [14]: 101%
- viability, T/C [15]: 107%
- viability, T/C [16]: 107%
- viability, T/C [17]: 72.6%
- viability, T/C [18]: 20.2%
- viability, T/C [19]: 89.9%
- viability, T/C [20]: 84.2%
- viability, T/C [21]: 105%
- viability, T/C [22]: 86.8%
- viability, T/C [23]: 76.5%
- viability, T/C [24]: 16.8%
- viability, T/C [25]: 85.3%
- viability, T/C [26]: 102%
- viability, T/C [27]: 89.4%
- viability, T/C [28]: 95.8%
- viability, T/C [29]: 68.8%
- viability, T/C [30]: 8.78%

Structure (SMILES): CC1COCCN1c1cc(C2(S(C)(=N)=O)CC2)nc(-c2ccnc3[nH]ccc23)n1 (stereo not given) + NC1CC1c1ccc(-c2cccc(O)c2)cc1
- IC50 (second compound 0.1 µM): > 10000 nM
- IC50 (second compound 0.316 µM): 2110 nM
- IC50 (second compound 1 µM): 1580 nM
- IC50 (second compound 3.16 µM): 2650 nM
- IC50 (second compound 10 µM): 2260 nM
- viability, T/C [1]: 99.7%
- viability, T/C [2]: 100%
- viability, T/C [3]: 102%
- viability, T/C [4]: 77.7%
- viability, T/C [5]: 47.9%
- viability, T/C [6]: 51.7%
- viability, T/C [7]: 104%
- viability, T/C [8]: 95.3%
- viability, T/C [9]: 92.5%
- viability, T/C [10]: 62.7%
- viability, T/C [11]: 42.5%
- viability, T/C [12]: 40.2%
- viability, T/C [13]: 83.1%
- viability, T/C [14]: 98.6%
- viability, T/C [15]: 83.7%
- viability, T/C [16]: 57.2%
- viability, T/C [17]: 39.8%
- viability, T/C [18]: 36.7%
- viability, T/C [19]: 90.2%
- viability, T/C [20]: 108%
- viability, T/C [21]: 94.5%
- viability, T/C [22]: 73.2%
- viability, T/C [23]: 43.9%
- viability, T/C [24]: 47.1%
- viability, T/C [25]: 77.2%
- viability, T/C [26]: 93%
- viability, T/C [27]: 82.3%
- viability, T/C [28]: 64%
- viability, T/C [29]: 41.1%
- viability, T/C [30]: 47.3%

Structure (SMILES): CCN(c1cc(-c2ccc(CN3CCOCC3)cc2)cc(C(=O)NCc2c(C)cc(C)[nH]c2=O)c1C)C1CCOCC1 + NC1CC1c1ccc(-c2cccc(O)c2)cc1
- IC50 (second compound 0.1 µM): > 3000 nM
- IC50 (second compound 0.316 µM): > 3000 nM
- IC50 (second compound 1 µM): > 3000 nM
- IC50 (second compound 3.16 µM): > 3000 nM
- IC50 (second compound 10 µM): > 3000 nM
- viability, T/C [31]: 92.9%
- viability, T/C [32]: 104%
- viability, T/C [33]: 97.8%
- viability, T/C [34]: 87.4%
- viability, T/C (second compound 0.1 µM, first compound 0.949 µM): 94.1%
- viability, T/C (second compound 0.1 µM, first compound 3 µM): 69.5%
- viability, T/C [35]: 102%
- viability, T/C [36]: 107%
- viability, T/C [37]: 97.8%
- viability, T/C [38]: 80.1%
- viability, T/C (second compound 0.316 µM, first compound 0.949 µM): 79.3%
- viability, T/C (second compound 0.316 µM, first compound 3 µM): 69.7%
- viability, T/C [39]: 96.1%
- viability, T/C [40]: 97.5%
- viability, T/C [41]: 89.4%
- viability, T/C [42]: 95.4%
- viability, T/C (second compound 1 µM, first compound 0.949 µM): 93.6%
- viability, T/C (second compound 1 µM, first compound 3 µM): 71.8%
- viability, T/C [43]: 108%
- viability, T/C [44]: 108%
- viability, T/C [45]: 109%
- viability, T/C [46]: 93.8%
- viability, T/C (second compound 3.16 µM, first compound 0.949 µM): 89.3%
- viability, T/C (second compound 3.16 µM, first compound 3 µM): 76.2%
- viability, T/C [47]: 101%
- viability, T/C [48]: 113%
- viability, T/C [49]: 97%
- viability, T/C [50]: 93%
- viability, T/C (second compound 10 µM, first compound 0.949 µM): 90.4%
- viability, T/C (second compound 10 µM, first compound 3 µM): 86.7%

Structure (SMILES): Cn1ncnc1C1c2n[nH]c(=O)c3cc(F)cc(c23)NC1c1ccc(F)cc1 (stereo not given) + NC1CC1c1ccc(-c2cccc(O)c2)cc1
- IC50 (second compound 0.1 µM): > 100 nM
- IC50 (second compound 0.316 µM): > 100 nM
- IC50 (second compound 1 µM): > 100 nM
- IC50 (second compound 3.16 µM): > 100 nM
- IC50 (second compound 10 µM): > 100 nM
- viability, T/C (second compound 0.1 µM, first compound 0.000316 µM): 90.3%
- viability, T/C (second compound 0.1 µM, first compound 0.001 µM): 95.9%
- viability, T/C (second compound 0.1 µM, first compound 0.00316 µM): 95%
- viability, T/C (second compound 0.1 µM, first compound 0.01 µM): 90.7%
- viability, T/C [1]: 84.6%
- viability, T/C [2]: 83.4%
- viability, T/C (second compound 0.316 µM, first compound 0.000316 µM): 92.2%
- viability, T/C (second compound 0.316 µM, first compound 0.001 µM): 96.2%
- viability, T/C (second compound 0.316 µM, first compound 0.00316 µM): 101%
- viability, T/C (second compound 0.316 µM, first compound 0.01 µM): 91.4%
- viability, T/C [7]: 82.2%
- viability, T/C [8]: 80%
- viability, T/C (second compound 1 µM, first compound 0.000316 µM): 90%
- viability, T/C (second compound 1 µM, first compound 0.001 µM): 97.4%
- viability, T/C (second compound 1 µM, first compound 0.00316 µM): 99.8%
- viability, T/C (second compound 1 µM, first compound 0.01 µM): 90.6%
- viability, T/C [13]: 75.9%
- viability, T/C [14]: 82.6%
- viability, T/C (second compound 3.16 µM, first compound 0.000316 µM): 89.7%
- viability, T/C (second compound 3.16 µM, first compound 0.001 µM): 94.4%
- viability, T/C (second compound 3.16 µM, first compound 0.00316 µM): 90.3%
- viability, T/C (second compound 3.16 µM, first compound 0.01 µM): 85.1%
- viability, T/C [19]: 82.7%
- viability, T/C [20]: 80%
- viability, T/C (second compound 10 µM, first compound 0.000316 µM): 85.5%
- viability, T/C (second compound 10 µM, first compound 0.001 µM): 88.3%
- viability, T/C (second compound 10 µM, first compound 0.00316 µM): 94.8%
- viability, T/C (second compound 10 µM, first compound 0.01 µM): 86.3%
- viability, T/C [25]: 82.5%
- viability, T/C [26]: 78.6%

Structure (SMILES): Nc1ncn(C2CC(O)C(CO)S2)c(=O)n1 (stereo not given) + NC1CC1c1ccc(-c2cccc(O)c2)cc1
- IC50 (second compound 0.1 µM): > 300 nM
- IC50 (second compound 0.316 µM): > 300 nM
- IC50 (second compound 1 µM): > 300 nM
- IC50 (second compound 3.16 µM): > 300 nM
- IC50 (second compound 10 µM): > 300 nM
- viability, T/C (second compound 0.1 µM, first compound 0.000949 µM): 100%
- viability, T/C (second compound 0.1 µM, first compound 0.003 µM): 90.5%
- viability, T/C [31]: 104%
- viability, T/C [32]: 91%
- viability, T/C [33]: 78.1%
- viability, T/C [34]: 64.8%
- viability, T/C (second compound 0.316 µM, first compound 0.000949 µM): 94.9%
- viability, T/C (second compound 0.316 µM, first compound 0.003 µM): 100%
- viability, T/C [35]: 77.4%
- viability, T/C [36]: 84.8%
- viability, T/C [37]: 87%
- viability, T/C [38]: 67.6%
- viability, T/C (second compound 1 µM, first compound 0.000949 µM): 81.8%
- viability, T/C (second compound 1 µM, first compound 0.003 µM): 101%
- viability, T/C [39]: 102%
- viability, T/C [40]: 88.8%
- viability, T/C [41]: 80.4%
- viability, T/C [42]: 67.5%
- viability, T/C (second compound 3.16 µM, first compound 0.000949 µM): 102%
- viability, T/C (second compound 3.16 µM, first compound 0.003 µM): 94.2%
- viability, T/C [43]: 98.2%
- viability, T/C [44]: 85.1%
- viability, T/C [45]: 93.8%
- viability, T/C [46]: 77%
- viability, T/C (second compound 10 µM, first compound 0.000949 µM): 94.3%
- viability, T/C (second compound 10 µM, first compound 0.003 µM): 92.9%
- viability, T/C [47]: 102%
- viability, T/C [48]: 79.6%
- viability, T/C [49]: 90.3%
- viability, T/C [50]: 74.8%

Source: PubChem BioAssay AID1918939 (Molecular Pharmacology Branch, DTP, NCI, 2023)
